Measurements taken from patent publication US6340705B1, “Use of α-linolenic acid metabolites for treatment or prevention of cancer” (Monsanto Technology, LLC, priority 1999, dated 2002).
Marks after values point to notes of the source that are not given here.

How the values were obtained:
[1] = parameters: species or system Mice; conditions: mouse, in vivo
Source text: The method used was a non-radioactive, dose response, metabolic end-point study.
(§1) Mice were fed a US17 diet containing α-linolenic acid ethyl ester (ALA-EE), stearidonic acid ethyl ester (SDA-EE), eicosapentaenoic acid ethyl ester (EPA-EE), or docosahexaenoic acid ethyl ester (DHA-EE) in an amount equivalent to a human western diet containing 1, 3 or 10 g/day of the fatty acid (g/day human equivalent dose). In order to maintain a 17% fat (37 en %) content in the US17 diet, oleic acid (18:1 n-9), as an oleic acid cassette, was removed from the US17 diet in an amount equal to the amount of fatty acid ester that was added. Oleic acid was selected as the replacement fatty acid because literature reports indicate that oleic acid is neutral with respect to inflammation and cancer.
(§2) After one month on the respective US17-based diets, the mice were sacrificed and the fatty acid composition of each of their livers was analyzed by gas chromatography. The results of these analyses are pressured in FIG. 8.

[2] = type: in vivo, rats; conditions: rat, in vivo
Source text: as §1, §2
The method used was as described in Example 6 except that rats were used in place of mice.

HepG2 cells [3] = experiment: Uptake of 14C-ALA, 14C-SDA and 14C-EPA by HepG2 cells; type: in vitro ADME; conditions: for radiolabeled fatty acid taken up by the cells: 20 μM complexed to fatty acid free BSA, within the first six hours of incubation; for uptake by HepG2 cells, comparison (FIG. 1): 20 μM, 6, 24 and 48 hours
Protocol: To a culture medium containing HepG2 cells was added 20 μM ^14C-ALA, ^14C-SDA or ^14C-EPA complexed to fatty acid free BSA. The amount of ^14C-ALA, ^14C-SDA or ^14-EPA EPA Taken up by the HepG2 cells was measured 6 hours, 24 hours and 48 hours after addition of the fatty acid. A scintillation counter was used to measure the total amount of radioactivity in the HepG2 cells and the amount remaining in the medium.

[4] = system: Min/+ mouse model of intestinal cancer; experiment: Intestinal polyp formation in the Min/+ mouse model of intestinal cancer; type: in vivo; parameters: Avg. large intestine tumor size: unit not given here; conditions: Min/+ mice; for effect on polyp number relative to the US17 control / effectiveness in inhibiting polyp formation and development in the large intestine: 10 g/day human equivalent dose; for effect on polyp number relative to the US17 control: differences not significant; for Total small intestine tumors/group / Avg. large intestine tumors/mouse / Avg. small intestine tumor size / Avg. small intestine tumors/mouse / Avg. large intestine tumor size / Avg. large intestine tumor load / Avg. small intestine tumor load / Total Avg. overall tumor load / Total Avg. overall tumor size / Total Avg. tumors/mouse: 10 g/day human equivalent dose (3% wt.) or sulindac 320 ppm; for Total small intestine tumors/group / Avg. large intestine tumors/mouse / Avg. small intestine tumor size / Avg. small intestine tumors/mouse / Avg. large intestine tumor size / Avg. large intestine tumor load / Avg. small intestine tumor load / Total large intestine tumors/group / Total large intestine tumors/group, figure in brackets (animals bearing tumors/animals in group) / Total Avg. overall tumor load / Total Avg. overall tumor size / Total Avg. tumors/mouse: seven weeks; for Avg. large intestine tumors/mouse / Avg. small intestine tumor size / Avg. small intestine tumors/mouse / Avg. large intestine tumor size / Avg. large intestine tumor load / Avg. small intestine tumor load / Total Avg. overall tumor load / Total Avg. overall tumor size / Total Avg. tumors/mouse: mean ± SEM; for Avg. large intestine tumor size: only animals bearing colonic tumors; for Avg. large intestine tumor load / Avg. small intestine tumor load: tumor number × tumor size; for Total large intestine tumors/group / Total large intestine tumors/group, figure in brackets (animals bearing tumors/animals in group): fatty acid ethyl ester 10 g/day human equivalent dose (3% wt.) in US17 diet or sulindac 320 ppm; for Total Avg. overall tumor load / Total Avg. overall tumor size / Total Avg. tumors/mouse: large and small intestine
Protocol: The efficacy of select n-3 and n-6 polyunsaturated fatty acids was evaluated in the Min/+ mouse model of intestinal cancer. The following fatty acid ethyl esters were tested for their effect on intestinal polyp formation: 1) ALA-EE; 2) SDA-EE; 2) EPA-EE; 4) DHA-EE; 5) GLA-EE ([…], 18:3 n-6); and 6) CLA-EE (conjugated linoleic acid; c9t11-18:2 (77%)+c9c11-18:2 (18%)+other isomers (5%)).
These fatty acid ethyl esters were added to the US17 diet to provide 10 g/day human equivalent dose (3% wt.). The NSAID, sulindac (320 ppm), served as the positive control. In order to maintain a 17% fat (37 en%) content in the US17 diet, oleic acid (18:1 n-9) was removed from the US17 diet in an amount equal to the amount of the fatty acid ethyl ester that was added. Mice were received at approximately five weeks of age and were fed the test diets upon receipt. After seven weeks on the respective test diet, the mice were sacrificed and the intestinal polyps were counted and measured.

HepG2 cells [5] = experiment: Metabolism of radiolabeled fatty acids to long chain n-3 PUFAs (EPA, DHA) in HepG2 cells; type: in vitro ADME; conditions: 20 μM
Protocol: HepG2 cells were allowed to take up ^14C-ALA or ^14C-SDA as described in Example 2. The total amount of ^14C-EPA, ^14C-DPA and ^14C-DHA present in the HepG2 cells was measured 6 hours, 24 hours and 48 hours after addition of the fatty acid by argentation thin layer chromatography (TLC). The amount of each fatty acid present as a band on the TLC plate was quantified by electronic autoradiography using an Instant Imager supplied by Packard (Meriden, Conn.).
HepG2 cells were allowed to take up ^14C-ALA, ^14C-SDA or ^14C-EPA as described in Example 2. The amount of ^14C-EPA and ^14C-DHA present in the HepG2 cells was measured 6 hours, 24 hours and 48 hours after addition of the fatty acids by argentation thin layer chromatography (TLC) as described in Example 3. The amount of ^14C-EPA and ^14C-DHA present as bands on the TLC plate were quantified by electronic autoradiography using an Instant Imager as described in Example 3.

[6] = Metabolism in mice, time course analysis using radiolabeled fatty acids (mouse liver); conditions: mice on US17 diet, intraperitoneal 10 μCi, at 24 hours
Protocol: The method used was a time course study using ^14C-labeled fatty acids.
Mice were fed the US17 diet for a period of one month in order to achieve steady-state fatty acid metabolism. After achieving steady-state fatty acid metabolism, the mice were administered an intraperitoneal injection containing 10 μCi of ^14C-ALA, ^14C-SDA, ^14C-EPA OR ^14C-DHA. Mice were sacrificed 3 hours, 8 hours or 24 hours post-injection, and the total amount of ^14C-EPA, ^14C-DPA n-3 and ^14C-DHA was measured by argentation thin layer chromatography followed by direct electronic autoradiography, as described in Example 3.

Row | Compound | sum of long chain n-3 PUFAs (EPA+DPA n-3+DHA) in liver tissue, rank order of dose dependent increase (FIG. 8) [1] | sum of long chain n-3 PUFAs (EPA+DPA n-3, and DHA) in liver tissue, rank order of dose dependent accumulation (FIG. 9) [2] | radiolabeled fatty acid taken up by the cells (HepG2 cells [3]) | uptake by HepG2 cells, comparison (FIG. 1) (HepG2 cells [3]) | effect on polyp number relative to the US17 control [4] | Total small intestine tumors/group [4] | Avg. large intestine tumors/mouse [4] | Avg. small intestine tumor size [4] | Avg. small intestine tumors/mouse [4] | Avg. large intestine tumor size [4] | Avg. large intestine tumor load [4] | Avg. small intestine tumor load [4] | Total large intestine tumors/group [4] | Total large intestine tumors/group, figure in brackets (animals bearing tumors/animals in group) [4] | Total Avg. overall tumor load [4] | Total Avg. overall tumor size [4] | Total Avg. tumors/mouse [4] | amount of EPA that remained after incubation with EPA itself (HepG2 cells [5]) | effectiveness in inhibiting polyp formation and development in the large intestine [4] | order of metabolism to 14C-EPA + 14C-DPA n-3 + 14C-DHA in mouse liver (FIG. 6) [6]
1 | CC/C=C\C/C=C\C/C=C\C/C=C\CCCCC(=O)OCC [SDA-EE, stearidonic acid ethyl ester] | DHA-EE>EPA-EE>SDA-EE>ALA-EE | DHA-EE>EPA-EE>SDA-EE>ALA-EE | – | – | – | – | – | – | – | – | – | – | – | – | – | – | – | – | – | –
2 | CC/C=C\C/C=C\C/C=C\CCCCCCCC(=O)O [ALA, α-linolenic acid] | – | – | Approximately 95% | taken up equally | – | – | – | – | – | – | – | – | – | – | – | – | – | – | – | –
3 | CCCCC/C=C\C/C=C\C/C=C\CCCCC(=O)O [GLA, γ-linolenic acid] | – | – | – | – | appeared to increase polyp number | 421 | 1.2 ± 0.4^abc | 1.30 ± 0.04^ab mm | 46.8 ± 7.1^a | 2.57 ± 0.30^ab | 3.25 ± 1.34^abc mm | 61.62 ± 10.36^a mm | 11 | 6/9 | 64.84 ± 11.05^a mm | 1.33 ± 0.04^a mm | 48.0 ± 7.4^a | – | – | –
4 | CC/C=C\C/C=C\C/C=C\CCCCCCCC(=O)OCC [ALA-EE, α-linolenic acid ethyl ester] | DHA-EE>EPA-EE>SDA-EE>ALA-EE | DHA-EE>EPA-EE>SDA-EE>ALA-EE | – | – | – | – | – | – | – | – | – | – | – | – | – | – | – | – | – | –
5 | CC/C=C\C/C=C\C/C=C\C/C=C\C/C=C\CCCC(=O)OCC [EPA-EE, eicosapentaenoic acid ethyl ester] | DHA-EE>EPA-EE>SDA-EE>ALA-EE | DHA-EE>EPA-EE>SDA-EE>ALA-EE | – | – | – | – | – | – | – | – | – | – | – | – | – | – | – | – | – | –
6 | CC1=C(CC(=O)O)c2cc(F)ccc2/C1=C\c1ccc([S+](C)[O-])cc1 (stereo not drawn) [Sulindac, sulindac] | – | – | – | – | – | 29 | 0.2 ± 0.2^cd | 1.25 ± 0.29^ab mm | 3.2 ± 1.1^d | 2.00 ± 0.00^ab | 0.44 ± 0.29^cd mm | 3.64 ± 1.12^d mm | 2 | 2/9 | 3.64 ± 1.27^d mm | 1.04 ± 0.08^d mm | 3.4 ± 1.2^d | – | – | –
7 | CC/C=C\C/C=C\C/C=C\C/C=C\C/C=C\CCCC(=O)O [EPA, eicosapentaenoic acid] | – | – | Approximately 95% | taken up equally | – | 176 | 0.9 ± 0.3^abcd | 1.05 ± 0.03^b mm | 17.6 ± 2.2^cd | 2.48 ± 0.39^ab | 2.25 ± 0.75^bcd mm | – | 9 | – | 20.28 ± 2.23^cd mm | 1.11 ± 0.04^cd mm | 18.5 ± 2.2^a | 63% | – | –
8 | α-linolenic acid [ALA] | – | – | – | – | – | 364 | 0.8 ± 0.3^bcd | 1.23 ± 0.04^ab mm | 36.4 ± 6.3^ab | 2.75 ± 0.46^ab | 2.15 ± 0.83^bcd mm | 45.67 ± 8.66^ab mm | 8 | 5/10 | 45.97 ± 8.88^ab mm | 1.21 ± 0.03^bc mm | 37.2 ± 6.6^ab | – | marginally efficacious | –
9 | CC/C=C\C/C=C\C/C=C\C/C=C\C/C=C\C/C=C\CCC(=O)O [DHA, docosahexaenoic acid] | – | – | – | – | – | 280 | 1.8 ± 0.4^a | 1.16 ± 0.04^ab mm | 28.0 ± 5.6^bc | 3.01 ± 0.20^a | 5.06 ± 0.85^a mm | 33.15 ± 8.09^bc mm | 18 | – | 35.60 ± 7.10^bc mm | 1.20 ± 0.04^bc mm | 29.8 ± 5.9^bc | – | no efficacy | DHA=EPA>SDA>ALA
10 | CC/C=C\C/C=C\C/C=C\C/C=C\C/C=C\C/C=C\CCC(=O)OCC [DHA-EE, docosahexaenoic acid ethyl ester] | DHA-EE>EPA-EE>SDA-EE>ALA-EE | DHA-EE>EPA-EE>SDA-EE>ALA-EE | – | – | – | – | – | – | – | – | – | – | – | – | – | – | – | – | – | –
11 | conjugated linoleic acid [CLA] | – | – | – | – | appeared to increase polyp number | 409 | 1.1 ± 0.4^abcd | 1.24 ± 0.03^ab mm | 45.4 ± 8.2^a | 3.03 ± 0.52^a | 3.47 ± 1.29^ab mm | 57.84 ± 11.70^a mm | 10 | 5/9 | 61.30 ± 12.41^a mm | 1.28 ± 0.04^ab mm | 46.6 ± 8.3^a | – | – | –
